Results: PMC6207720, “Identification and antitumor activity of a novel inhibitor of the NIMA-related kinase NEK6” (Scientific Reports, 2018)
Read-outs that look alike come from different tables or passages of the source.

Tests used:
NEK6 [1] = target: T1, NEK6 (Homo sapiens, UniProt Q9HC98); assay: LANCE-Ultra NEK6 kinase assay; type: biochemical; conditions: 100 µM ATP
T1 construct: purchased Carna 05-130
Description: The twenty-five compounds resulting from virtual screening were firstly tested for the ability to inhibit the enzymatic activity of NEK6 at a single concentration of 30 µM, using LANCE technology. Quercetin, able to inhibit a broad panel of kinase, was used as positive control of inhibition[12],[30]. This initial screening allowed the identification of two compounds determining >70% NEK6 inhibition at 30 µM, i.e. compound 8 (6-hydroxy-4-methyl-2-oxo-5-[(5-phenyl (2-furyl)) methylene] pyridine-3-carbonitrile), and 21 (6-amino-2-phenyl-5,7,9-triazatetracyclo[8.7.0.0^3,^8 0^11,^16]heptadeca-1(10),3(8),6,11,13,15 hexaene-4,17-dione) (Fig. 4). […] The possible binding mode of compound 8 in the ATP-binding site of NEK6 as well as nonbonded interactions across the complex interface are shown in Fig. 6. Compound 8 may use its phenyl ring and furyl ring to form hydrophobic Pi-alkyl interactions with Ala72 (strand β3), Ala125 (hinge region) and Val59 (strand β2) of the ATP binding site (Fig. 6B). […] This is particulary relevant when considering that C–H···O hydrogen bonds play an important role in the ligand-binding process[33]–[35].
Compounds (i.e. 1 to 25) (Molport, Riga, LV-1011, Latvia) were dissolved in DMSO 100% as 10 mM stock and stored at −20 C. Activity of the compounds as NEK6 inhibitors was tested using LANCE NEK6 Ultra Kinase Assays protocol (U-TRF #25 technical note, PerkinElmer, Monza, MB). Compounds were first tested at 30 µM and incubated with 4 nM NEK6 (Carna, Chuo-ku, Kobe, Japan, # 05-130), 50 nM ULight-p70 S6K Peptide (PerkinElmer # TRF0126) and 100 μM ATP (Sigma-Aldrich, Saint Louis, U.S.A, # A2383) at room temperature. Kinase reactions were terminated after 90 minutes by the addition of EDTA and the signal was read with the Enspire plate reader (PerkinElmer) in TR-FRET mode (excitation at 320 nm and emission at 665 nm) after 60 minutes. Inhibition of NEK6 activity was calculated as percentage with respect to the control sample (100% of activity). Quercetin was used as positive control (Molport). […] For each compound the dose inhibiting 50% of NEK6 activity (IC50) was calculated using the GraphPad Prism 5.0 Software (San Diego, CA, USA).

NEK6 [2] = target: T1, NEK6; assay: Off-chip Mobility Shift Assay (MSA), NEK6; type: biochemical; conditions: CARNA Biosciences Study CBS170097, ATP 75 µM
Description: Therefore, we decided to evaluate the selectivity of compound 8 against a panel of NEK kinases at 10 µM, using the technique of Off-chip Mobility shift assay. This concentration was chosen according to the guidelines proposed by Knight and Shokat, since the probability of off-target effects increases dramatically above 10 µM[36]. Furthermore, ATP concentration was set to approximate the Km,ATP for each kinase, so that the resulting selectivity profile directly reflects the intrinsic affinities of the inhibitor[37]. […] A major consequence of this substitution may be the redistribution of surface charges at the flexible activation loop resulting in an altered electrostatic potential and ability of NEK6 kinase to interact with other molecules.
The inhibitory activity of compounds 8 and 21 on NEK6 was also verified with MSA technique (Off-chip Mobility shift assay) (CARNA Biosciences Study ID: CBS170097, CARNA Biosciences, Kobe). […] PKR Inhibitor was used as positive control. For profiling study against NEK kinases (i.e. NEK1, NEK2, NEK6, NEK7, NEK9) (CARNA Biosciences Study ID: CBS170098), 8 was tested at 10 μM and ATP concentration approximating Km for each kinase. Assay condition for kinases are available on “Kinase profiling book” downloading by www.carnabio.com (https://www.carnabio.com/output/pdf/ProfilingProfilingBook_en.pdf).

PEO1 (ovary) = assay: Cell-based cytotoxicity assay (ATPlite), PEO1; parameters: species or system human; conditions: 72 h
From the text: The following human carcinoma cell lines were used for the study: MDA-MB-231 and MCF-7 (breast cancer; ATCC, Sesto San Giovanni, MI), PEO1 and COV318 (ovarian cancer; ECACC, Salisbury, UK and ATCC), HCT-15 and SW948 (colon cancer; Public Health England, Salisbury, UK and ATCC), NCI-H1975 and NCI-H1299, (lung cancer; ATCC). Cells were routinely tested free of mycoplasma (MycoAlert mycoplasma detection kit, LONZA, Rockland, ME, USA) and validated by STR (Short Tandem Repeat) DNA profiling (BMR Genomics srl, PD). Cells were grown following supplier indication, in a fully humidified atmosphere of 5% CO2/95% air. All the reagents were purchased from Sigma-Aldrich (St. Louis, MO), if not otherwise specified.

T1 sequence (Q9HC98 whole entry): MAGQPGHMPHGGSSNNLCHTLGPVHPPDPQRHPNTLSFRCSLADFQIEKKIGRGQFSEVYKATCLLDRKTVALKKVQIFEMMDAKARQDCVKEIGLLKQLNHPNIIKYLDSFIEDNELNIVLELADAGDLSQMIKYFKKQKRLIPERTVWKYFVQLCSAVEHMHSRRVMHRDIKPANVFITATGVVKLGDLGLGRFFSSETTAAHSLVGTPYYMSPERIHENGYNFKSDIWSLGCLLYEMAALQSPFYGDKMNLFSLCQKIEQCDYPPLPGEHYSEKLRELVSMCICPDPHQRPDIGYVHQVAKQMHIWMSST

Nc1nc2c(c(=O)[nH]1)C(c1ccccc1)C1=C(N2)c2ccccc2C1=O (centres unmarked) [Compound 21, 6-amino-2-phenyl-5,7,9-triazatetracyclo[8.7.0.0^3,^8 0^11,^16]heptadeca-1(10),3(8),6,11,13,15 hexaene-4,17-dione]
IC50 (NEK6 [1]; LANCE-Ultra, mean ± SEM of 4 independent experiments): 2.6 ± 0.05 µM | inhibition at 30 µM (NEK6 [1]; single concentration 30 µM, LANCE): > 70% | IC50 (NEK6 [2]): 49.8 µM

N.N.[Cl][Pt][Cl] [cisplatin]
IC50 (PEO1 (ovary); PEO1, cisplatin alone, read-out: Cisplatin IC50 (mean ± SEM)): 7.9 ± 0.65 µM

CC(=O)O[C@H]1C(=O)[C@@]2(C)[C@H]([C@H](OC(=O)c3ccccc3)[C@]3(O)C[C@H](OC(=O)[C@H](O)[C@@H](NC(=O)c4ccccc4)c4ccccc4)C(C)=C1C3(C)C)[C@]1(OC(C)=O)CO[C@@H]1C[C@@H]2O [paclitaxel]
IC50 (PEO1 (ovary); Homo sapiens, PEO1, paclitaxel alone, read-out: IC50 paclitaxel): 0.007 ± 1e-06 µM
